# Test system: Acinetobacter baumannii ATCC17978
# Test: Minimal Inhibitory Concentration (MIC) assay
# Format: cell-based
# Settings: Acinetobacter baumannii ATCC17978; CAMHB; 20 hours at 35±2° C.; lowest concentration that inhibits visible growth; read-out: ATCC 17978 MIC
# Protocol: Minimal Inhibitory Concentration Protocol (MIC) Assay:
# Table 2 provides the in vitro potency of the compounds of present invention obtained against the strain Acinetobacter baumannii ATCC17978, which was assessed by an MIC (Minimal Inhibitory Concentration) assay as follows.
# Test compounds were prepared from 10 mM DMSO stock solutions. The top dose was diluted from 10 mM to 2.5 mM by DMSO, followed by serial 2-fold 11 points dilutions in DMSO in a master plate (Greiner, Cat No: 651201). 2 μL compounds were transferred from the master plate into a new 96-well assay plate (Costar, 3599).
# The growth medium […] Mueller Hinton Broth (CAMHB) was prepared by adding 22 g powder (BD, 212322) in 1 L purified water, autoclaved, and supplemented with sterilized CaCl2) (20 mg per liter) and MgCl2 (10 mg per liter).
# Vials of each of the test microorganisms were maintained frozen in the vapor phase of a liquid nitrogen freezer. Took out the bacterial strain ATCC 17978 from liquid nitrogen freezer, thawed it at room temperature, and diluted the bacterial in the CAMHB medium to achieve a final inoculum of 2×10^5 CFU/mL. 98 μL of the adjusted bacteria suspension was dispensed to the assay plate and pipetted 5 times.
# Then the assay plates were incubated for 20 hours at 35±2° C. in ambient air with humidity. Following incubation, MIC (μg/mL) value, the lowest concentration of drug that inhibits visible growth of the microorganism, was recorded by visual judgment of bacterial growth through magnification mirror of MIC reader, and the assay plates were photographed with Qcount system as image raw data. Meanwhile, the OD600 of assay plates was recorded with SpectraMax Plus384 as OD raw data.
row,MIC [µg/mL],Compound
1,16.5,"CCc1nn(-c2ccc(N)cn2)cc1-c1cnc(C(=O)Nc2ccc(C(=O)N3CCN(C(=O)C4CCN(C)CC4)CC3)c(Cl)c2)n1C [Example C13, 5-[1-(5-amino-2-pyridyl)-3-ethyl-pyrazol-4-yl]-N-[3-chloro-4-[4-(1-methylpiperidine-4-carbonyl)piperazine-1-carbonyl]phenyl]-1-methyl-imidazole-2-carboxamide]"
2,5.09,"CN1CCC(C(=O)N2CCN(C(=O)c3ccc(NC(=O)c4ncc(-c5cn(-c6ccc(N)nn6)nc5C(F)(F)F)n4C)cc3Cl)CC2)CC1 [Example C14, 5-[1-(6-aminopyridazin-3-yl)-3-(trifluoromethyl)pyrazol-4-yl]-N-[3-chloro-4-[4-(1-methylpiperidine-4-carbonyl)piperazine-1-carbonyl]phenyl]-1-methyl-imidazole-2-carboxamide]"

# Continued, molecule first:
row,Compound,MIC [µg/mL]
1,CNc1ccc(-n2cc(-c3cnc(C(=O)Nc4ccc(C(=O)N5CCN(C(=O)[C@@H]6CCNC[C@H]6O)CC5)c(Cl)c4)n3C)c(C(F)(F)F)n2)nc1.O=CO [Example D2],1.12
2,"Cn1c(-c2cn(-c3ncccn3)nc2C(F)(F)F)cnc1C(=O)Nc1ccc(C(=O)N[C@H]2[C@@H]3CN(C(=O)C4CCNCC4)C[C@@H]32)c(Cl)c1.O=CO [Example F3, N-[3-chloro-4-[[(1S,5R)-3-(piperidine-4-carbonyl)-3-azabicyclo[3.1.0]hexan-6-yl]carbamoyl]phenyl]-1-methyl-5-[1-pyrimidin-2-yl-3-(trifluoromethyl)pyrazol-4-yl]imidazole-2-carboxamide]",4.41
3,"COc1cnc(-n2cc(-c3cnc(C(=O)Nc4ccc(C(=O)N5CCN(C(=O)C6CCNCC6)CC5)c(Cl)c4)n3C)c(C(F)(F)F)n2)nc1.O=CO [Example A4, N-[3-chloro-4-[4-(piperidine-4-carbonyl)piperazine-1-carbonyl]phenyl]-5-[1-(5-methoxypyrimidin-2-yl)-3-(trifluoromethyl)pyrazol-4-yl]-1-methyl-imidazole-2-carboxamide]",2.19

# From patent US12679824B2 (Hoffmann-La Roche Inc., priority 2020, dated 2026)
